According to US20180303776A1, “LIPOSOMAL REHYDRATION SALT FORMULATION FOR TREATMENT OF ALCOHOL RELATED DISORDERS” (EINSOF BIOHEALTH LIMITED, priority 2017, published 2018):

Tests used:
[1] = system: HMGB1; experiment: HMGB1 expression in frontal cortex after ethanol intoxication; format: in vivo, rats
Experimental: (§1) There now follows examples of treatment of ethanol intoxication and using OEA as Example 10. Rats received an initial dose of 5 g/kg of 30% (w/v) ethanol via oral probe and a maximum of 3 g/kg of ethanol in subsequent doses every 8 hours. Blood was collected from the tail vein 2 hours before and 2 hours after 15:00 hours of ethanol administration by gavage on days 2 to 4 in order to determine blood ethanol levels (BEL), and treated of keeping toxic ethanol doses BEL relatively constant (see the table below). Mean ethanol/rat doses were 8 g/kg, 7.5 g/kg, 7.9 g/kg and 4.9 g/kg, day 1 to 4, respectively, and the mean ethanol/rat/day (1-4) was 7.06 g/kg. In a first experiment, the time-course of the neuro-inflammation was verified after 1 hour, 6 hours and 24 hours from the last feeding forced with ethanol. […]
(§2) HMGB1 is a dangerous cytokine recruited by alcohol that activates the MyD88-dependent TLR4 immune signaling pathway, inducing the translocation of the p65 subunit of NF-kB to the nucleus and increasing its transcriptional activity. […] Lipid peroxidation, measured by the accumulation of 4-HNE, induces a redox cell state related to activation of caspase 3 and cell death by caspase-mediated apoptosis 8. […]
(§3) The western blot analysis was studied. […] Autoradiography was quantified by densitometry (NIH ImageJ® software, National Biosciences, Lincoln, Nebr. USA) and expressed as optical density (O.D.). […]

[2] = system: TNF-α; experiment: TNF-α in frontal cortex and plasma after ethanol intoxication; format: in vivo, rats; details: OEA pretreatment
Experimental: as §1, with “ethanol. In the second experiment, OEA (5 mg/kg, ip, 10 mg/kg loading dose) was injected as pretreatment 10 min before each ethanol forced feed, and brain/blood tissue samples were collected 2-4 hours after the last administration of ethanol.” for “ethanol.”
as §2
(§4) Real-time Polymerase Chain Reaction Analysis (RT-PCR) were studied. […] Quantitative changes in mRNA levels were estimated by RT-PCR, carried out in the presence of the SYBR green probe using a […] reaction in a Rotor-Gene (Corbett Research®, Mortlake, NSW, Australia).
(§5) Levels of HMGB1, pro-inflammatory cytokines (TNF-α, IL-1β) and chemokines MCP-1 were studied. Levels of HMGB1, TNF-α, IL-1β and soluble MCP-1 were determined by Enzyme-linked immunosorbent assay (ELISA) 30 (Elabscience Biotechnology Co., Ltd., China, for HMGB-1; RayBiotech®, GA, USA, for the TNF-α, IL-1β and MCP-1). The nuclear/cytosolic HMGB1 fraction was determined by Western blot analysis.

[3] = system: p65 subunit of NF-kB; experiment: NF-κB p65 expression and transcription factor activity in frontal cortex; format: in vivo, rats
Experimental: as §1, with “g/kg.” for “g/kg. In a first experiment, the time-course of the neuro-inflammation was verified after 1 hour, 6 hours and 24 hours from the last feeding forced with ethanol.”
as §2
Real-time Polymerase Chain Reaction Analysis (RT-PCR) were studied. […] Quantitative changes in mRNA levels were estimated by RT-PCR, carried out in the presence of the SYBR green probe using a […] reaction in a Rotor-Gene (Corbett Research®, Mortlake, NSW, Australia). […]

[4] = system: TLR4; experiment: TLR4 mRNA and protein expression in frontal cortex after ethanol intoxication; format: in vivo, rats; details: OEA pretreatment
Experimental: as §1, §2, §3

[5] = system: MD2; experiment: MD2 protein expression in frontal cortex after ethanol intoxication; format: in vivo, rats; details: OEA pretreatment
Experimental: as §1, §2, §3

[6] = system: MCP-1; experiment: MCP-1 levels in frontal cortex after ethanol intoxication; format: in vivo, rats; details: OEA pretreatment
Experimental: as §1, with “g/kg.” for “g/kg. In a first experiment, the time-course of the neuro-inflammation was verified after 1 hour, 6 hours and 24 hours from the last feeding forced with ethanol.”
as §2
Levels of HMGB1, pro-inflammatory cytokines (TNF-α, IL-1β) and chemokines MCP-1 were studied. Levels of HMGB1, TNF-α, IL-1β and soluble MCP-1 were determined by Enzyme-linked immunosorbent assay (ELISA) 30 (Elabscience Biotechnology Co., Ltd., China, for HMGB-1; RayBiotech®, GA, USA, for the TNF-α, IL-1β and MCP-1). […]

[7] = system: MyD88; experiment: MyD88 protein expression in frontal cortex after ethanol intoxication; format: in vivo, rats; details: OEA pretreatment
Experimental: as §1, §2, §3

[8] = system: IL-1β; experiment: IL-1β in frontal cortex and plasma after ethanol intoxication; format: in vivo, rats; details: OEA pretreatment
Experimental: as §1, with “ethanol. In the second experiment, OEA (5 mg/kg, ip, 10 mg/kg loading dose) was injected as pretreatment 10 min before each ethanol forced feed, and brain/blood tissue samples were collected 2-4 hours after the last administration of ethanol.” for “ethanol.”
as §2, §4, §5

[9] = system: rats exposed to ethanol intoxication; experiment: Elevated cross maze test during ethanol abstinence; format: in vivo
Experimental: Tests were conducted to determine the effects of repeated OEA administration on depressive and anxiety behavior during early ethanol abstinence. Animals were tested in the cross-raised labyrinth 24 hours and 12 days after the alcohol abuse protocol and forced swimming test was performed 48 hours after the last administration of ethanol. [HMGB1 (High Mobility Group Box 1): high mobility group 1 box; TLR4 (Toll-Like Receptors 4): Receptors type Toll 4: MD2 (Myeloid Differentiation Protein 2): myeloid differentiation protein 2; MyD88 (Myeloid Differentiation Factor 88): myeloid differentiation factor 88; NF-kB (Nuclear Farctor kB): nuclear transcription factor kappa B (p65 subunit); IkB: inhibitory protein IkappaB; TNF-α (Tumor Necrosis Factor α): tumor necrosis factor alpha; IL-1β (Interleukin β): 1interleukin-1 beta; MCP-1 (Monocyte Chemoattractant Protein 1): monocyte chemotactic protein 1; INOS (inducible Nitric Oxide Synthase): inducible nitric oxide synthase; COX-2 (Cyclooxygenase 2): cyclooxygenase 2; 4-HNE (4-hydroxynonenal): 4-hydroxynonenal]. […] The forced swimming test was performed on the rats two days after the last forced feed with ethanol and the specific behaviors were recorded with a digital video camera for 5 minutes. […]

[10] = system: caspase-3; experiment: Caspase-3 expression and activity in frontal cortex; format: in vivo, rats; details: OEA pretreatment
Experimental: as §1, with “ethanol. In the second experiment, OEA (5 mg/kg, ip, 10 mg/kg loading dose) was injected as pretreatment 10 min before each ethanol forced feed, and brain/blood tissue samples were collected 2-4 hours after the last administration of ethanol.” for “ethanol.”
as §2, §3, §4
Measurement of caspase-3 activity was studied. Caspase-3 activity was determined using a fluorometric assay kit (Abnova®, Taiwan) according to the manufacturer's protocol. […]

[11] = system: corticosterone; experiment: Plasma corticosterone levels; format: in vivo, rats
Experimental: (§6) There now follows examples of treatment of ethanol intoxication and using OEA as Example 10. Rats received an initial dose of 5 g/kg of 30% (w/v) ethanol via oral probe and a maximum of 3 g/kg of ethanol in subsequent doses every 8 hours. Blood was collected from the tail vein 2 hours before and 2 hours after 15:00 hours of ethanol administration by gavage on days 2 to 4 in order to determine blood ethanol levels (BEL), and treated of keeping toxic ethanol doses BEL relatively constant (see the table below). Mean ethanol/rat doses were 8 g/kg, 7.5 g/kg, 7.9 g/kg and 4.9 g/kg, day 1 to 4, respectively, and the mean ethanol/rat/day (1-4) was 7.06 g/kg. In a first experiment, the time-course of the neuro-inflammation was verified after 1 hour, 6 hours and 24 hours from the last feeding forced with ethanol. In the second experiment, OEA (5 mg/kg, ip, 10 mg/kg loading dose) was injected as pretreatment 10 min before each ethanol forced feed, and brain/blood tissue samples were collected 2-4 hours after the last administration of ethanol.
(§7) Experimental design, drug administration and tissue/plasma collection are now discussed. […]
(§8) Plasma levels of corticosterone and LPS were studied. Corticosterone and LPS were measured in plasma using commercially available kits by radioimmunOEAsay (RIA) (Coat-A-Count®, Siemens, La., USA) or colorimetric enzyme reaction (HyCult Biotech, Uden, respectively).

[12] = system: LPS; experiment: Plasma LPS levels (intestinal permeability to endotoxins); format: in vivo, rats; details: pretreated with OEA and receiving ethanol; ethanol alone approximately 80%
Experimental: as §6, §7, §8

[13] = system: iNOS; experiment: iNOS mRNA expression in frontal cortex; format: in vivo, rats; details: OEA pretreatment
Experimental: as §1, with “g/kg.” for “g/kg. In a first experiment, the time-course of the neuro-inflammation was verified after 1 hour, 6 hours and 24 hours from the last feeding forced with ethanol.”
as §2, §4

[14] = system: caspase-8; experiment: Caspase-8 mRNA expression in frontal cortex; format: in vivo, rats; details: OEA pretreatment
Experimental: as §1, with “g/kg.” for “g/kg. In a first experiment, the time-course of the neuro-inflammation was verified after 1 hour, 6 hours and 24 hours from the last feeding forced with ethanol.”
as §2, §4

[15] = system: IκBα; experiment: IκBα mRNA and protein expression in frontal cortex; format: in vivo, rats; details: OEA pretreatment
Experimental: as §1, §2, §3

[16] = system: rats exposed to ethanol intoxication; experiment: Forced swimming test during early ethanol abstinence; format: in vivo; details: forced swimming test 48 hours after last ethanol administration; OEA pretreatment
Experimental: Tests were conducted to determine the effects of repeated OEA administration on depressive and anxiety behavior during early ethanol abstinence. Animals were tested in the cross-raised labyrinth 24 hours and 12 days after the alcohol abuse protocol and forced swimming test was performed 48 hours after the last administration of ethanol. [HMGB1 (High Mobility Group Box 1): high mobility group 1 box; TLR4 (Toll-Like Receptors 4): Receptors type Toll 4: MD2 (Myeloid Differentiation Protein 2): myeloid differentiation protein 2; MyD88 (Myeloid Differentiation Factor 88): myeloid differentiation factor 88; NF-kB (Nuclear Farctor kB): nuclear transcription factor kappa B (p65 subunit); IkB: inhibitory protein IkappaB; TNF-α (Tumor Necrosis Factor α): tumor necrosis factor alpha; IL-1β (Interleukin β): 1interleukin-1 beta; MCP-1 (Monocyte Chemoattractant Protein 1): monocyte chemotactic protein 1; INOS (inducible Nitric Oxide Synthase): inducible nitric oxide synthase; COX-2 (Cyclooxygenase 2): cyclooxygenase 2; 4-HNE (4-hydroxynonenal): 4-hydroxynonenal]. In this third experiment (n=25), the treatment with ethanol intoxication and OEA pretreatment applied in experiment 2 was repeated, and the animals were submitted to the maze test in a high cross 24 hours and 12 days after the last forced ethanol administration and the forced swimming test 48 hours after the ethanol intoxication protocol. Behavioral tests were studied. The forced swimming test was performed on the rats two days after the last forced feed with ethanol and the specific behaviors were recorded with a digital video camera for 5 minutes. These same rats were also tested by the high cross maze test equipped with infrared light (Panlab, Barcelona, Spain) 1 and 12 days after the last forced feed with ethanol, allowing the animals to freely explore the labyrinth during 5 minutes. Tests were performed 3 hours after onset of the dark phase.

[17] = system: COX-2; experiment: COX-2 mRNA expression in frontal cortex; format: in vivo, rats; details: 2-4 hours after last ethanol administration, OEA pretreatment
Experimental: as §1, with “g/kg.” for “g/kg. In a first experiment, the time-course of the neuro-inflammation was verified after 1 hour, 6 hours and 24 hours from the last feeding forced with ethanol.”
as §2, §4

[18] = system: 4-HNE; experiment: Lipid peroxidation (HNE adduct formation) in frontal cortex; format: in vivo, rats; details: significant only in the animals treated with ethanol
Experimental: as §1, with “g/kg.” for “g/kg. In a first experiment, the time-course of the neuro-inflammation was verified after 1 hour, 6 hours and 24 hours from the last feeding forced with ethanol.”
as §2
Lipid peroxidation was studied. […] Levels of HNE protein adducts in cerebral cortex lysates were measured using a competitive 96-well OxySelect™ adduct HNE ELISA Kit (Cell Biolabs®, San Diego, Calif., US).

`CCCCCCCC/C=C\CCCCCCCC(=O)NCCO` [OEA, oleoylethanolamide] was tested, and the “increase in HMGB1 induced by ethanol intoxication” value ([1]; OEA 5 mg/kg ip 10 min before each ethanol dose) was “prevented”, the “nuclear/cytoplasmic HMGB1 ratio” value ([1]; OEA pretreatment + ethanol) was 1.48 and the “ethanol-induced increase of TNF-α mRNA expression” value ([2]; frontal cortex) was “did not prevent this effect”. The “ethanol-induced increase of TNF-α protein levels” value ([2]; frontal cortex) was “not avoided”, the “ethanol-induced increase of TNF-α” value ([2]; plasma) was “partially prevented” and the “increase in nuclear activity of p65 induced by ethanol” value ([3]; frontal cortex nuclear extracts, OEA pretreatment) was “counteracted”. The “increase in p65 mRNA levels induced by ethanol” value ([3]; frontal cortex, OEA pre-administration) was “partially prevented”, the “ethanol-induced overexpression of TLR4 mRNA” value [4] was “able to reduce the overexpression” and the “ethanol-induced overexpression of TLR4 protein” value [4] was “able to reduce the overexpression”. The “increase in MD2 protein induced by ethanol” value [5] was “inhibited the increase”, the “ethanol-induced increase of MCP-1 levels” value [6] was “prevented this effect” and the “increase in ethanol-induced MyD88 protein expression” value [7] was “inhibited the increase”. For the same compound, the “ethanol-induced increase in IL-1β protein levels” value ([8]; frontal cortex) was “prevented”, the “ethanol-induced increase of IL-1β mRNA expression” value ([8]; frontal cortex) was “did not prevent this effect” and the “ethanol-induced increase of IL-1β” value ([8]; plasma) was “prevented”. For the same compound, the “anxiety-type behavior: percentage of entries and time in the open arms” value ([9]; 24 hours after ethanol intoxication) was “clear trend showing a clear anxiolytic effect of OEA in the animals treated with ethanol and control, the Dunn post hoc test found no significant effects in multiple comparisons”, the “anxiety-type behavior: percentage of entrances and time of permanence in the open arms” value ([9]; 12 days after ethanol intoxication) was “not significant” and the “alcohol-induced overexpression of caspase-3 mRNA” value [10] was “not able to prevent this effect”. For the same compound, the “ethanol-induced increase in caspase-3 activity” value [10] was “reversed”, the “ethanol-induced overexpression of caspase-3 protein” value [10] was “prevented” and the “ethanol-induced increase in plasma corticosterone levels” value ([11]; animals exposed to ethanol intoxication, OEA pretreatment) was “completely prevented”. For the same compound, the plasma corticosterone levels ([11]; control animals) was “did not modify”, the LPS plasma levels [12] was 44 % increase over control and the “ethanol-induced increase in the expression of iNOS mRNA” value [13] was “completely prevented”. The “ethanol-induced overexpression of caspase-8 mRNA” value [14] was “reversed this effect”, the “increase in IκBα mRNA levels induced by ethanol” value [15] was “did not counteract” and the “increase in IκBα protein expression induced by ethanol” value [15] was “did not counteract”. The alcohol-induced depressive symptoms [16] was “able to prevent alcohol-induced depressive symptoms”, the immobility [16] was “normalizing” and the latency [16] was “normalizing”. The swimming [16] was “normalizing”, the “COX-2 mRNA levels” value [17] was “reduced COX-2 mRNA levels with ethanol, but not in the animals treated with vehicle” and the “HNE formation (lipid peroxidation)” value [18] was “decreased the HNE formation”.
